Results on 13 compounds are retold here after PubChem BioAssay (NCI).

The structures appear in SMILES notation.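 Exposure lasted 48 hours, with cells grown in 96-well plates and compounds tested at five concentrations. TGI is the concentration that stops growth completely.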

Among the test systems are OVCAR-3 ovarian; UO-31 renal; U251 CNS; UACC-62 melanoma; SN12C renal; A549 NSCLC; LOX IMVI melanoma; T-47D breast; SK-MEL-2 melanoma; CAKI-1 renal.
What all share (test): NCI tumour cell line growth inhibition, 48 h

For `CCOC(=O)/C=C/[C@H](O)[C@@H](O)/C=C/C(=O)OCC`, the TGI was 64.7 µM in the test with OVCAR-3 ovarian; over 100 µM with UO-31 renal; over 100 µM in the test with U251 CNS; 57.4 µM in the test with UACC-62 melanoma; 85.2 µM in the test on SN12C renal; over 100 µM with A549 NSCLC. The TGI is 74.2 µM in the test on LOX IMVI melanoma, over 100 µM with T-47D breast, over 100 µM with SK-MEL-2 melanoma and 45.8 µM in the test with CAKI-1 renal.

As to `NC(=O)C(=O)C(c1ccccc1)S(=O)(=O)Cc1ccccc1` (stereo not given), the TGI in the test with OVCAR-3 ovarian, with UO-31 renal, in the test on U251 CNS, with UACC-62 melanoma, with SN12C renal and in the test with A549 NSCLC was over 100 µM in each case. Moreover, the TGI with LOX IMVI melanoma, in the test with T-47D breast, with SK-MEL-2 melanoma and with CAKI-1 renal was over 100 µM in each case.

In the case of `Cc1ccc(N2CCN(CCC(=O)O)CC2)cc1`, the TGI in the test with OVCAR-3 ovarian, with UO-31 renal, in the test on U251 CNS, in the test with UACC-62 melanoma, in the test with SN12C renal and in the test on A549 NSCLC was over 100 µM each time. For the same compound, the TGI in the test with LOX IMVI melanoma, with T-47D breast, in the test on SK-MEL-2 melanoma and with CAKI-1 renal was over 100 µM in each case.

On to `N#Cc1c(O)c(N=Nc2ccc(Cl)cc2)c(=O)n2c1[nH]c1ccccc12`, for which the TGI with OVCAR-3 ovarian is 80.8 µM; with UO-31 renal, over 100 µM; in the test on U251 CNS, over 100 µM; in the test with UACC-62 melanoma, over 100 µM; in the test on SN12C renal, over 100 µM; in the test with A549 NSCLC, over 100 µM. Also, the TGI in the test on LOX IMVI melanoma, in the test on T-47D breast, in the test on SK-MEL-2 melanoma and in the test with CAKI-1 renal was over 100 µM in each case.

Regarding `CCCCCCOc1ccc(C(=O)N(C)O)cc1`, the TGI is over 100 µM with OVCAR-3 ovarian; 60.9 µM with UO-31 renal; over 100 µM in the test on U251 CNS; 60.9 µM with UACC-62 melanoma; over 93.9 µM with SN12C renal; 56.6 µM in the test with A549 NSCLC. For the same compound, the TGI in the test with LOX IMVI melanoma is over 100 µM; in the test on T-47D breast it was 99.4 µM; with SK-MEL-2 melanoma it was over 100 µM; in the test on CAKI-1 renal it was over 91.2 µM.

Turning to `O=C(O)CN1CCN(CC(=O)N2CCN(C(=O)OCc3ccccc3)CC2)CCN(CC(=O)O)CCN(CC(=O)N2CCN(C(=O)OCc3ccccc3)CC2)CC1`, the TGI in the test on OVCAR-3 ovarian, in the test on UO-31 renal, in the test with U251 CNS, with UACC-62 melanoma, in the test with SN12C renal and in the test on A549 NSCLC was over 100 µM in each case. Besides, the TGI in the test with LOX IMVI melanoma, with T-47D breast, in the test on SK-MEL-2 melanoma and in the test on CAKI-1 renal was over 100 µM in each case.

Consider `COc1ccc2c(c1)CCCN2S(=O)(=O)c1ccccc1[N+](=O)[O-]`, for which the TGI is over 92.3 µM with OVCAR-3 ovarian; over 94.5 µM in the test with UO-31 renal; over 92 µM in the test on U251 CNS; over 97.5 µM in the test with UACC-62 melanoma; over 100 µM with SN12C renal; over 100 µM in the test on A549 NSCLC. In addition, the TGI with LOX IMVI melanoma is over 88.6 µM; with T-47D breast, over 87.8 µM; in the test with SK-MEL-2 melanoma, 72.4 µM; in the test with CAKI-1 renal it was over 100 µM.

Turning to `O=C(NC(Nc1ccc(F)cc1)(C(F)(F)F)C(F)(F)F)C(C(F)(F)F)C(F)(F)F`, the TGI in the test on OVCAR-3 ovarian was over 100 µM; with UO-31 renal, over 62.5 µM; in the test with U251 CNS, over 100 µM; with UACC-62 melanoma it was over 100 µM; in the test on SN12C renal it was over 100 µM; in the test with A549 NSCLC, over 100 µM. In addition, the TGI in the test with LOX IMVI melanoma was over 100 µM; in the test with T-47D breast, over 100 µM; in the test on SK-MEL-2 melanoma it was 25.2 µM; in the test with CAKI-1 renal, over 100 µM.

As to `NC(Cc1ccc(S(=O)(=O)O)cc1)C(=O)NC(Cc1ccc(S(=O)(=O)O)cc1)C(=O)NC(Cc1ccc(S(=O)(=O)O)cc1)C(=O)O` (stereo not given), the TGI in the test on OVCAR-3 ovarian, with UO-31 renal, in the test on U251 CNS, in the test on UACC-62 melanoma, in the test with SN12C renal and in the test on A549 NSCLC was over 100 µM in each case. The TGI in the test with LOX IMVI melanoma, with T-47D breast, with SK-MEL-2 melanoma and in the test with CAKI-1 renal was over 100 µM in each case.

As for `CCCCCCCCCCCCOc1ccc(/C=C/C2=[N+](CCCl)CCO2)cc1`, the TGI is 37.9 µM with OVCAR-3 ovarian; over 100 µM in the test on UO-31 renal; 58.4 µM with U251 CNS; over 100 µM in the test with UACC-62 melanoma; over 100 µM in the test with SN12C renal; over 100 µM in the test on A549 NSCLC. For the same compound, the TGI with LOX IMVI melanoma is 39.9 µM; with T-47D breast, over 100 µM; in the test with SK-MEL-2 melanoma, over 100 µM; in the test with CAKI-1 renal, over 100 µM.

For the compound `CC(C)C(C/C=C1/CC(CO)(COC(=O)c2ccccc2)OC1=O)C(C)C` (stereo not given), the TGI in the test with OVCAR-3 ovarian turned out to be 32.2 µM; with UO-31 renal, 31.5 µM; with U251 CNS, 36.1 µM; in the test with UACC-62 melanoma, 67.1 µM; with SN12C renal, 29 µM; in the test on A549 NSCLC, 26.5 µM. The TGI with LOX IMVI melanoma was 69.6 µM; in the test with T-47D breast, 31.2 µM; in the test on SK-MEL-2 melanoma it was over 100 µM; with CAKI-1 renal it was 27.8 µM.

With `CN1C=Cc2nccc3cc4c(c1c23)OCO4`, the TGI is over 72.4 µM in the test with OVCAR-3 ovarian; 34.9 µM in the test on UO-31 renal; 32.4 µM with U251 CNS; 5.36 µM in the test with UACC-62 melanoma; 30.2 µM in the test with SN12C renal; over 55.4 µM in the test on A549 NSCLC. The TGI was over 100 µM in the test on LOX IMVI melanoma, over 27.1 µM with T-47D breast, 11.3 µM in the test with SK-MEL-2 melanoma and 5.77 µM in the test on CAKI-1 renal.

For `CC1(C)C2CC3C4CC5(Nc6ccccc6C5N41)[C@]3(C)CC2=O` (stereo not given in full), the TGI in the test on OVCAR-3 ovarian, with UO-31 renal, in the test on U251 CNS, with UACC-62 melanoma, in the test with SN12C renal and with A549 NSCLC was over 50 µM throughout. Besides, the TGI in the test with LOX IMVI melanoma was over 50 µM; in the test with T-47D breast, 33.3 µM; with SK-MEL-2 melanoma, over 50 µM; in the test with CAKI-1 renal, over 50 µM.
